Assays:
Format in all cases: in vivo
[1] = test system: Diabrotica balteata (Corn Root Worm); experiment: Example B3: Diabrotica balteata, sprayed maize sprouts, mortality; settings: 96 h, application rate of 200 ppm, L2 larvae, 4 days after infestation
Protocol: Maize sprouts placed onto an agar layer in 24-well microtiter plates were treated with aqueous test solutions prepared from 10,000 ppm DMSO stock solutions by spraying. After drying, the plates were infested with L2 larvae (6 to 10 per well). The samples were assessed for mortality 4 days after infestation.

[2] = test system: Euschistus heros (Neotropical Brown Stink Bug); experiment: Example B6: Euschistus heros, sprayed soybean leaves, mortality and growth inhibition; settings: 120 h, application rate of 200 ppm, N2 nymphs, 5 days after infestation, read-out: effect in at least one of the two categories (mortality or growth inhibition)
Protocol: Soybean leaves on agar in 24-well microtiter plates were sprayed with aqueous test solutions prepared from 10,000 ppm DMSO stock solutions. After drying the leaves were infested with N2 nymphs. The samples were assessed for mortality and growth inhibition in comparison to untreated samples 5 days after infestation.

[3] = test system: Myzus persicae (Green Peach Aphid); experiment: Example B8: Myzus persicae, sprayed sunflower leaf discs, mortality; settings: foliar, 144 h, application rate of 200 ppm, leaf disc spray, aphid population of mixed ages, 6 days after infestation
Protocol: Sunflower leaf discs were placed onto agar in a 24-well microtiter plate and sprayed with aqueous test solutions prepared from 10,000 ppm DMSO stock solutions. After drying, the leaf discs were infested with an aphid population of mixed ages. The samples were assessed for mortality 6 days after infestation.

[4] = test system: Spodoptera littoralis (Egyptian Cotton Leaf Worm); experiment: Example B16: Spodoptera littoralis, sprayed cotton leaf discs, mortality; settings: foliar, 72 h, application rate of 200 ppm, L1 larvae, 3 days after infestation
Protocol: Cotton leaf discs were placed onto agar in 24-well microtiter plates and sprayed with aqueous test solutions prepared from 10,000 ppm DMSO stock solutions. After drying the leaf discs were infested with five L1 larvae. The samples were assessed for mortality 3 days after infestation.

[5] = test system: Spodoptera littoralis (Egyptian Cotton Leaf Worm); experiment: Example B18: Spodoptera littoralis, compound in agar absorbed by lettuce roots, mortality, anti-feedant effect and growth inhibition; settings: 144 h, test rate of 12.5 ppm, uptake by lettuce roots, Spodoptera eggs, 6 days after infestation, read-out: effect in at least one of the three categories (mortality, anti-feeding, or growth inhibition)
Procedure, shortened: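 Compound from 10,000 ppm DMSO stock mixed into agar; lettuce seeds grew 7 days, taking compound up via roots into the lid plate. Cut leaves infested with Spodoptera eggs; mortality, anti-feedant effect and growth inhibition scored against untreated samples 6 days after infestation.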

[6] = test system: Thrips tabaci (Onion Thrips); experiment: Example B22: Thrips tabaci, sprayed sunflower leaf discs, mortality; settings: foliar, 144 h, application rate of 200 ppm, thrips population of mixed ages, 6 days after infestation
Protocol: Sunflower leaf discs were placed on agar in 24-well microtiter plates and sprayed with aqueous test solutions prepared from 10,000 ppm DMSO stock solutions. After drying the leaf discs were infested with a thrips population of mixed ages. The samples were assessed for mortality 6 days after infestation.

CCS(=O)(=O)c1cc(C(C#N)CCBr)cnc1-c1cn2cnc(C(F)(F)F)cc2n1 (stereo not drawn) [Compound P13, 4-bromo-2-[5-ethylsulfonyl-6-[7-(trifluoromethyl)imidazo[1,2-c]pyrimidin-2-yl]-3-pyridyl]butanenitrile]
≥ 80%: mortality at 200 ppm [1] | percent effect (mortality or growth inhibition) at 200 ppm [2] | mortality at 200 ppm [3] | mortality at 200 ppm [4] | percent effect (mortality, anti-feeding or growth inhibition) at 12.5 ppm [5] | mortality at 200 ppm [6]
